According to patent US5716993A, “Anthranilic acid derivatives” (Eisai Co., Ltd., priority 1993, dated 1998):

Target: T1, cGMP-PDE prepared from porcine aorta (Sus scrofa, UniProt A0A287B475)
T1 construct: The enzyme activity of CGMP-PDE prepared from porcine aorta was determined; from tissue; host or cells: porcine aorta, 100,000×g supernatant, DEAE-Toyopearl 650S fractions
Experiment: Enzyme inhibitory activity using cGMP-PDE prepared from porcine aorta
Assay type: biochemical
Settings: CaM-independent cGMP-PDE fractions from porcine aorta; 1 μM cGMP substrate, 1 mM EGTA, DMSO 4% or below
Experimental: Enzyme Inhibitory activity using cGMP-PDE prepared from porcine aorta
The enzyme activity of CGMP-PDE prepared from porcine aorta was determined according to the method of Thompson et al. This determination was conducted in the presence of 1 mM EGTA by the use of 1 μM cGMP as the substrate. Each compound according to the present invention was dissolved in DMSO and added to the reaction system to determine the inhibitory activity thereof. The final concentration of DMSO in the reaction system was adjusted to 4% or below.
The cGMP-PDE was prepared as follows:
Porcine aorta was cut into fine pieces, followed by the addition of 10 times by volume as much buffer A (20 mM Tris/HCl, 2 mM Mg acetate, 1 mM dithiothreitol, 5 mM EDTA, 1400TIU/1 aprotinin, 10 mg/1 leupeptin, 1 mM benzamidine, 0.2 mM PMSF, pH7.5). The obtained mixture was homogenized and centrifuged at 100,000×g for one hour. The obtained supernatant was placed on a column of DEAE-Toyopearl 650S (a product of Tosoh, Tokyo, Japan), followed by the washing of the column with buffer B (50 mM Tris/HCl, 0.1 mM EGTA, 2 mM Mg acetate, 1 mM Dithiothreitol, 0.2 mM PMSF, pH7.5). The resulting column was subjected to gradient elution with 0.05 to 0.4M sodium chloride to obtain CaM-independent cGMP-PDE fractions.

Row | SMILES | IC50
1 | COc1ccc(CNC(=O)c2cc(Br)ccc2NC(=O)c2ccncc2)cc1Cl [Example 81] | 14.5 nM
2 | COc1ccc(CNC(=O)c2cc(Cl)ccc2NC(=O)N2CCC(C(=O)O)CC2)cc1Cl [Example 43] | 0.9 nM
3 | O=C(NCc1ccc2c(c1)OCO2)c1cc(Cl)ccc1NCc1ccncc1 [Example 33, 5-Chloro-N-(3,4-methylenedioxybenzyl)-2-(4-picolyl)aminobenzamide] | 20.5 nM
4 | O=C(NCc1ccc2c(c1)OCO2)c1cc(Br)ccc1NC(=O)[C@H]1CC[C@H](C(=O)O)CC1 [Example 45, 5-Bromo-2-(trans-4-carboxycyclohexanecarbonyl)amino-N-(3,4-methylenedioxybenzyl)benzamide] | 0.7 nM
5 | O=C(NCc1ccc2c(c1)OCO2)c1cc(Cl)ccc1NC(=O)C1CCCCC1 [Example 19, 5-Chloro-2-[(cyclohexanecarbonyl)amino]-N-(3,4-methylenedioxybenzyl)benzamide] | 16.6 nM
6 | COc1ccc(CNC(=O)c2cc(C#N)c(OC)cc2NC(=O)c2ccncc2)cc1Cl [Example 83, N-(3-Chloro-4-methoxybenzyl)-5-cyano-2-(isonicotinoylamino)-4-methoxybenzamide] | 12.6 nM
7 | COc1ccc(CNC(=O)c2cc(C#N)ccc2NC(=O)c2ccncc2)cc1Cl [Example 80, N-(3-Chloro-4-methoxybenzyl)-5-cyano-2-(isonicotinoylamino)benzamide] | 11.9 nM
8 | O=C(Nc1ccc(Cl)cc1C(=O)NCc1ccc2c(c1)OCO2)c1ccncc1 [Example 9, 5-Chloro-N-(3,4-methylenedioxybenzyl)-2-(isonicotinoylamino)benzamide] | 28.8 nM
9 | COc1ccc(CNC(=O)c2cc(C#N)ccc2NC(=O)N2CCC(O)CC2)cc1Cl [Example 74, 1-[[2-[(3-Chloro-4-methoxybenzyl)carbamoyl]-4-cyanophenyl]carbamoyl]-4-hydroxypiperidine] | 2.4 nM
10 | COc1ccc(CNC(=O)c2cc(C#N)ccc2NC(=O)[C@H]2CC[C@H](O)CC2)cc1Cl [Example 109, N-(3-Chloro-4-methoxybenzyl)-5-cyano-2-[(trans-4-hydroxycyclohexanecarbonyl)amino]benzamide] | 4.4 nM
11 | O=C(NCc1ccc2c(c1)OCO2)c1cc(Cl)ccc1NC[C@H]1CC[C@H](C(=O)O)CC1 [Example 47] | 5.3 nM
12 | O=C(Nc1ccc(Br)cc1C(=O)NCc1ccc2c(c1)OCO2)c1ccncc1 [Example 85, 5-Bromo-2-(isonicotinoylamino)-N-(3,4-methylenedioxybenzyl)benzamide] | 21.7 nM
13 | O=C(O)/C=C/C(=O)Nc1ccc(Cl)cc1C(=O)NCc1ccc2c(c1)OCO2 [Example 44, 2-(3-Carboxyacryoyl)amino-5-chloro-N-(3,4-methylenedioxybenzyl)benzamide] | 79.8 nM
14 | COc1ccc(CNC(=O)c2cc([N+](=O)[O-])ccc2NC(=O)[C@H]2CC[C@H](C(=O)O)CC2)cc1Cl [Example 114, 2-[(trans-4-Carboxycyclohexanecarbonyl)amino]-N-(3-chloro-4-methoxybenzyl)-5-nitrobenzamide] | 1.7 nM
15 | COc1ccc(CNC(=O)c2cc(C#N)ccc2NC(=O)[C@H]2CC[C@H](C(=O)O)CC2)cc1Cl [Example 110, 2-[(trans-4-Carboxycyclohexanecarbonyl)amino]-N-(3-chloro-4-methoxybenzyl)-5-cyanobenzamide] | 0.7 nM
16 | COc1ccc(CNC(=O)c2cc(Br)ccc2NC(=O)[C@H]2CC[C@H](C(=O)O)CC2)cc1Cl [Example 113, 5-Bromo-2-[(trans-4-carboxycyclohexanecarbonyl)amino]-N-(3-chloro-4-methoxybenzyl)benzamide] | 0.4 nM
17 | COc1ccc(CNC(=O)c2cc(Br)ccc2NC(=O)N2CCC(C(=O)O)CC2)cc1Cl [Example 111, 1-[[4-Bromo-2-[(3-chloro-4-methoxybenzyl)carbamoyl]phenyl]carbamoyl]piperidine-4-carboxylic acid] | 2 nM
18 | O=C(NCc1ccc2c(c1)OCO2)c1cc(Cl)ccc1NC(=O)N1CCC(C(=O)O)CC1 [Example 38, 1-[[4-Chloro-2-[(3,4-methylenedioxybenzyl)carbamoyl]phenyl]carbamoyl]piperidine-4-carboxylic acid] | 6.7 nM
19 | COc1ccc(CNC(=O)c2cc(Br)c(OC)cc2NC(=O)[C@H]2CC[C@H](C(=O)O)CC2)cc1Cl [Example 115, 5-Bromo-2-[(trans-4-carboxycyclohexanecarbonyl)amino]-N-(8-chloro-4-methoxybenzyl)-4-methoxybenzamide] | 24.8 nM
20 | O=C(NCc1ccc2c(c1)OCO2)c1cc(Cl)ccc1NC(=O)[C@H]1CC[C@H](C(=O)O)CC1 [Example 39, 2-(trans-4-Carboxycyclohexanecarbonyl)amino-5-chloro-N-(3,4-methylenedioxybenzyl)benzamide] | 3.2 nM
21 | O=C(O)c1ccc(C(=O)Nc2ccc(Cl)cc2C(=O)NCc2ccc3c(c2)OCO3)cc1 [Example 41, 2-(4-Carboxybenzoyl)amino-5-chloro-N-(3,4-methylenedioxybenzyl)benzamide] | 1.4 nM
22 | COc1ccc(CNC(=O)c2cc(Cl)ccc2NC(=O)[C@H]2CC[C@H](C(=O)O)CC2)cc1Cl [Example 112, 2-[(trans-4-Carboxycyclohexanecarbonyl)amino]-5-chloro-N-(3-chloro-4-methoxybenzyl)benzamide] | 5.3 nM

More lines, now with the values ahead:

Row | IC50 | SMILES
23 | 19.2 nM | O=C(NCc1ccc2c(c1)OCO2)c1cc(OC(F)(F)F)ccc1NC(=O)[C@H]1CC[C@H](C(=O)O)CC1 [Example 125, 2-[(trans-4-Carboxycyclohexanecarbonyl)amino]-N-(3,4-methylenedioxybenzyl)-5-trifluoromethoxybenzamide]
24 | 21.5 nM | COc1ccc(CNC(=O)c2cc(Cl)ccc2NC(=O)[C@H]2CC[C@H](C(=O)O)CC2)cc1C#N [Example 120, 2-[(trans-4-Carboxycyclohexanecarbonyl)amino]-5-chloro-N-(3-cyano-4-methoxybenzyl)benzamide]
25 | 7.2 nM | COc1ccc(CNC(=O)c2cc(Br)c(N)cc2NC(=O)[C@H]2CC[C@H](C(=O)O)CC2)cc1Cl [Example 141, 4-Amino-5-bromo-2-[(trans-4-carboxycyclohexanecarbonyl)amino]-N-(3-chloro-4-methoxybenzyl)benzamide]
26 | 2.9 nM | O=C(NCc1ccc2c(c1)OCO2)c1cc(-n2cccn2)ccc1NC(=O)[C@H]1CC[C@H](C(=O)O)CC1 [Example 126, 2-[(trans-4-Carboxycyclohexanecarbonyl)amino]-N-(3,4-methylenedioxybenzyl)-5-(1-pyrazolyl)benzamide]
27 | 6.1 nM | O=C1c2c(NC(=O)[C@H]3CC[C@H](C(=O)O)CC3)ccc(Br)c2CN1Cc1ccc2c(c1)OCO2 [Example 123, 4-Bromo-7-[(trans-4-carboxycyclohexanecarbonyl)amino]-N-(3,4-methylenedioxybenzyl)isoindoline-1-one]
28 | 11.5 nM | COc1ccc(CNC(=O)c2cc(S(=O)(=O)N(C)C)ccc2NC(=O)[C@H]2CC[C@H](C(=O)O)CC2)cc1Cl [Example 117, 2-[(trans-4-Carboxycyclohexanecarbonyl)amino]-N-(3-chloro-4-methoxybenzyl)-5-dimethylsulfamoylbenzamide]
29 | 2.9 nM | COc1ccc(CNC(=O)c2cc(C#N)c(OC)cc2NC(=O)[C@H]2CC[C@H](C(=O)O)CC2)cc1Cl [Example 116]
30 | 18.1 nM | COc1ccc(CNC(=O)c2cc(C#N)ccc2NC(=O)[C@@H]2CCC(=O)O2)cc1Cl [Example 136, N-(3-Chloro-4-methoxybenzyl)-5-cyano-2-[((S)-5-oxo-2-tetrahydrofurancarbonyl)amino]benzamide]
31 | 36.8 nM | COc1cc(NC(=O)[C@H]2CC[C@H](C(=O)O)CC2)c(C(=O)NCc2ccc3c(c2)OCO3)cc1Br [Example 129, 5-Bromo-2-[(trans-4-carboxycyclohexanecarbonyl)amino]-4-methoxy-N-(3,4-methylenedioxybenzyl)benzamide]
32 | 5 nM | O=C(NCc1ccc2c(c1)OCO2)c1cc(Br)ccc1NC(=O)N1CCC(C(=O)O)CC1 [Example 122]
33 | 7.7 nM | COc1cc(CNC(=O)c2cc(Cl)ccc2NC(=O)[C@H]2CC[C@H](C(=O)O)CC2)ccc1Cl [Example 121, 2-[(trans-4-Carboxycyclohexanecarbonyl)amino]-5-chloro-N-(4-chloro-3-methoxybenzyl)benzamide]
